Experimental data from patent US20120022099A1, “NOVEL POLYMORPHIC FORMS OF AN AZABICYCLO-TRIFLUOROMETHYL BENZAMIDE DERIVATIVE” (SANOFI, priority 2008, published 2012).

Key:
[1] = system: hippocampal dentate gyrus; conditions: induced by high-frequency electrical stimulation of the afferent perforant pathway; cited from earlier work
GLYT-1 = target: T1, GLYT-1 (Homo sapiens, UniProt P48067); conditions: in vitro; cited from earlier work
T1 sequence (P48067 1-706): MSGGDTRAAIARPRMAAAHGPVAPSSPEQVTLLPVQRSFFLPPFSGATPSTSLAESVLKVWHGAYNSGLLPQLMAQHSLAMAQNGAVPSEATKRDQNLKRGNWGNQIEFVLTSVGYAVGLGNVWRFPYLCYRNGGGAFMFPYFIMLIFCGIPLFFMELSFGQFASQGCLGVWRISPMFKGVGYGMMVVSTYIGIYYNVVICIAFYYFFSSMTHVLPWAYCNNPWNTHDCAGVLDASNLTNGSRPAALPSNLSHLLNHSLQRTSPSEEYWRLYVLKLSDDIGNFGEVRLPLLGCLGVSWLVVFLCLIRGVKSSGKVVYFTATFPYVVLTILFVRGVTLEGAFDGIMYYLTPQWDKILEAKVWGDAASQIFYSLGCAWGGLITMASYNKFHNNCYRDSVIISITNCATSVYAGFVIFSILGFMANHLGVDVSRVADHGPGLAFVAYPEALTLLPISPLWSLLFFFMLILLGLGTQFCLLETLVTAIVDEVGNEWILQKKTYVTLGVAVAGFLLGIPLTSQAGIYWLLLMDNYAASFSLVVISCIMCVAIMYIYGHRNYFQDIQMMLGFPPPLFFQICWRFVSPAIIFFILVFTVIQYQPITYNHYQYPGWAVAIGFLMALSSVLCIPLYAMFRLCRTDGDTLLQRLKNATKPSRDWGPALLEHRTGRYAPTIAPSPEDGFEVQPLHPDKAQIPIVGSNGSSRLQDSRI

NMDA receptor = conditions: cited from earlier work
c-Fos immunoreactivity = conditions: in vivo; cited from earlier work
DBA/2J mice = conditions: strain with low basal pre-pulse inhibition; cited from earlier work
[2] = Stability of the solid form, conversion between polymorphs; type: physicochemical; conditions: for stability of the polymorphic form: hydrochloride
[3] = Thermal decomposition on drying by heating; type: physicochemical; conditions: drying through heating to release residual solvents

Structure (SMILES): CN(CCC(Oc1ccc(-c2ccccc2)cc1)c1ccc(F)cc1)CC(=O)O (racemic) [(+/−)-NFPS, N-[3-(4′-fluorophenyl)-3-(4′-phenylphenoxy)propyl]sarcosine]
- long-term potentiation [1]: significantly enhanced

Structure (SMILES): CN(CCC(Oc1ccc(-c2ccccc2)cc1)c1ccc(F)cc1)CC(=O)O (single isomer, unassigned; (+)) [(+)-NFPS, (+)N-[3-(4′-fluorophenyl)-3-(4′-phenylphenoxy)-propyl]sarcosine]
- activity relative to the racemic compound (GLYT-1): greater than 10 fold
- NMDA-induced [3H]GABA release (NMDA receptor): significantly stimulated
- pattern of c-Fos immunoreactivity (c-Fos immunoreactivity): comparable with the atypical anti-psychotic clozapine
- pre-pulse inhibition of the acoustic startle response (DBA/2J mice): enhanced

Structure (SMILES): Cl.O=C(N[C@@H](c1ccccc1)[C@@H]1CC2CCN1CC2)c1c(Cl)ccc(C(F)(F)F)c1Cl [Form A, N—[(S)-2(S)-1-azabicyclo[2.2.2]oct-2-yl(phenyl)methyl]-2,6-dichloro-3-(trifluoromethyl)benzamide hydrochloride]
- stability of the polymorphic form ([2]; listed as polymorph A): highly stable
- temperature above which thermal decomposition of the compound occurs [3]: above 220 °C

Structure (SMILES): Cl.O=C(N[C@@H](c1ccccc1)[C@@H]1CC2CCN1CC2)c1c(Cl)ccc(C(F)(F)F)c1Cl [Form B, N—[(S)-2(S)-1-azabicyclo[2.2.2]oct-2-yl(phenyl)methyl]-2,6-dichloro-3-(trifluoromethyl)benzamide hydrochloride]
- conversion to polymorph A ([2]; aqueous system): readily converts to the desired polymorph A
- stability of the polymorphic form [2]: lower stability than Form A
- solubility (Solubility in water): > 200 mg/mL
- solubility in water (Solubility in water; 45° C.): highly soluble in water
